# Patent US20100081702A1 (priority 2007, published 2010)
# Tested on: concanavalin A (ConA)-induced mouse hepatitis models (T cell-dependent liver injury models)
# Assay: concanavalin A (ConA)-induced mouse hepatitis model, AST and ALT in serum
# Method: Aspartate aminotransferase (AST) and alanine aminotransferase (ALT) in serum were measured as indices for liver injury in concanavalin A (ConA)-induced mouse hepatitis models used as T cell-dependent liver injury models. The inhibitory effects of compounds of the present invention on liver injury were studied.
# A compound suspension was orally administered at a dose of 1 mg/kg to male BALE/c mice. 24 hours after the oral administration, ConA was intravenously administered at a dose of 20 mg/kg to the tails of the mice. 24 hours after the ConA administration, blood was collected from the mice, and AST and ALT in serum were measured.
smiles,measurement,setting,value
COc1ccc(CCCC(=O)c2ccc(CC[C@@](C)(N)CO)n2C)cc1C [Compound 1],inhibitory effects on ALT level elevating effects,"result in words, 1 mg/kg oral, ConA-induced mouse hepatitis",significant inhibitory effects
same,"AST level (mean ± S.E., IU/L)","serum, compound 1 mg/kg oral 24 hours before ConA 20 mg/kg intravenous, blood collected 24 hours after ConA, **P < 0.01, *P < 0.05 vs. solvent (solvent 236.9 ± 52.6, negative control 105.2 ± 26.1)",97.4 ± 9.1** IU/L
same,"ALT level (mean ± S.E., IU/L)","serum, compound 1 mg/kg oral 24 hours before ConA 20 mg/kg intravenous, blood collected 24 hours after ConA, **P <0.01, *P <0.05 vs. solvent (solvent 454.1 ± 137.8, negative control 76.4 ± 14.2)",101.6 ± 19.6** IU/L
